# Reference: ChEMBL document CHEMBL1201862, “PubChem BioAssay data set” (2004)
# The source made the active and inactive calls.
# How the values were obtained:
# [1] = alpha-synuclein stem-loop luciferase translation blockers – H4 neuroglioma cells, luminescence, confirmation (AID 1988); type: functional, cell-based
# [2] = luciferase reporter signal suppression in cells – H4 neuroglioma cells, luminescence, dose response (AID 1990); type: functional, cell-based
# [3] = Luminescence Cell-Based Dose Response HTS to Identify Inhibitors of 5'UTR Stem-Loop Driven Prion Protein mRNA Translation in H4 Neuroglioblastoma Cells. [Related pubchem assays: 1827 (Project Summary), 1813 (Primary HTS)]; type: functional
# [4] = NIH-3T3 fibroblast cytotoxicity, dose response, cytotoxicity control, cell-based, fluorescence, Alamar Blue, secondary assay (AID 2327); type: functional;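 further: NIH-3T3 mouse fibroblasts cultured with fluconazole at 8 µg/mL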
# INS1 = experiment: INS-1E survival protection against cytokine death – cell-based, luminescence, retest, dose response (AID 449756); type: functional; conditions: Rattus norvegicus;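 further: cell death triggered by IL-1 beta plus TNF-alpha plus IFN-gamma mixture; protective hits raise ATP signal compared with cytokine alone wells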
# Cytochrome P450 3A4 = Cytochrome P450 3A4 (Homo sapiens, UniProt P08684);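 further: CYP3A4 tested as one member of a cytochrome P450 panel screen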
# Cytochrome P450 3A4, sequence (P08684 whole entry): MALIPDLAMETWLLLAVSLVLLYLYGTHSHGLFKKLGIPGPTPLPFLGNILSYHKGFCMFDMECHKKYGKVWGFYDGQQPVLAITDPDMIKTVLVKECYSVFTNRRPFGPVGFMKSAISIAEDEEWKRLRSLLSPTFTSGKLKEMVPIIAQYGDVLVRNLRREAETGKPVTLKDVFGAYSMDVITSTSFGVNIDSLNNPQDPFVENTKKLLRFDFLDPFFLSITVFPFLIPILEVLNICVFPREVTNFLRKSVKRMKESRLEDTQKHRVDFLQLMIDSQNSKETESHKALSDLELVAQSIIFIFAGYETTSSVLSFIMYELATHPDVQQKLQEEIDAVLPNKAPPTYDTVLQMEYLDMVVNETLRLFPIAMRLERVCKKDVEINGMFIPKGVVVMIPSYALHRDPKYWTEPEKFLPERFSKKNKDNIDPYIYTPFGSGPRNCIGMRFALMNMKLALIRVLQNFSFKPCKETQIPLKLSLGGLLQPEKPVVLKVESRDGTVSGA
# Cytochrome P450 2C9 = Cytochrome P450 2C9 (Homo sapiens, UniProt P11712)
# Cytochrome P450 2C9, sequence (P11712 whole entry): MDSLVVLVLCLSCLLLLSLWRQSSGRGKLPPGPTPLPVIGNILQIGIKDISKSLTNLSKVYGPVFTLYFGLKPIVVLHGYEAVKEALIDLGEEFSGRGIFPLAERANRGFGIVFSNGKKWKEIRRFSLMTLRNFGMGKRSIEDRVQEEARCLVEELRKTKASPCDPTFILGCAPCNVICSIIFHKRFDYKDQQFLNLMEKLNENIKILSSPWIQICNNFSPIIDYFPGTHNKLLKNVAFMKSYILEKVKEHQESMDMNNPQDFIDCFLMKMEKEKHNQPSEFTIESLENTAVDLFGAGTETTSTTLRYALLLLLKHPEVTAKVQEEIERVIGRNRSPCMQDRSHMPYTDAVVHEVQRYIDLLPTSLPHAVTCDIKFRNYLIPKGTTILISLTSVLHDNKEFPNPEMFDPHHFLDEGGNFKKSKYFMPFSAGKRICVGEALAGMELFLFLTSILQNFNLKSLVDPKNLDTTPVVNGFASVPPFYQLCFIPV
# Cytochrome P450 2C19 = Cytochrome P450 2C19 (Homo sapiens, UniProt P33261); experiment: Cytochrome panel assay with activity outcomes. Panel member name: p450-cyp2c19 Compounds with AC50 equal or less than 10 uM are considered active; type: functional; conditions: read-out: AC50
# Cytochrome P450 2C19, sequence (P33261 whole entry): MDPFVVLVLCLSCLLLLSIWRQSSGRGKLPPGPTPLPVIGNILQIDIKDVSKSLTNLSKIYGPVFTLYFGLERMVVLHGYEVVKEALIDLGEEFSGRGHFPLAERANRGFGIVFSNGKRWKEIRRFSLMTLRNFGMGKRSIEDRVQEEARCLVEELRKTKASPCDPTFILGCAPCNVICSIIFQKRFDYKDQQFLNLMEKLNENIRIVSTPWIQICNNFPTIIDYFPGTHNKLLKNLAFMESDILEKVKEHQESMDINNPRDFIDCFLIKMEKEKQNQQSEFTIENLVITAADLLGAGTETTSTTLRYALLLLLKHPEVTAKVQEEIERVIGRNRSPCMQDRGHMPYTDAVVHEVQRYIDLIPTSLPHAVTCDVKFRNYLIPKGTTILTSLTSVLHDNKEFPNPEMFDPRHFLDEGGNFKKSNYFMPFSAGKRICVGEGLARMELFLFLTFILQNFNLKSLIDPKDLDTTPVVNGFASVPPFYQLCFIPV
# [5] = fluconazole-exposed Candida albicans growth modulators – fluorescence, retest, confirmation (AID 2467); type: functional, cell-based
# H9c2 = experiment: cells; type: functional, cell-based; conditions: Rattus norvegicus, H9c2, Myocardium;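 further: confirmatory concentration-response retest of ultra-high-throughput screening hits for modulation of myocardial damage; cell death induced by hydrogen peroxide oxidative stress; compound pretreatment for 60 min then peroxide exposure for 2 h; potency is for protecting the cells against peroxide damage rather than for killing them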
# [6] = P. falciparum Dd2 growth inhibitors, dose response, SYBR Green, cherry-picked samples (AID 1159567); type: functional, cell-based
# Streptokinase A = target: T1, Streptokinase A (Streptococcus pyogenes serotype M1, UniProt P10520); experiment: viability-normalized secreted streptokinase activity reduction – plasminogen activation absorbance, OD405, dose response (AID 1914); type: functional, Streptococcus pyogenes M1 GAS;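 further: secreted streptokinase activity via plasminogen activation per viability signal from cell pellet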
# T1 sequence (P10520 whole entry): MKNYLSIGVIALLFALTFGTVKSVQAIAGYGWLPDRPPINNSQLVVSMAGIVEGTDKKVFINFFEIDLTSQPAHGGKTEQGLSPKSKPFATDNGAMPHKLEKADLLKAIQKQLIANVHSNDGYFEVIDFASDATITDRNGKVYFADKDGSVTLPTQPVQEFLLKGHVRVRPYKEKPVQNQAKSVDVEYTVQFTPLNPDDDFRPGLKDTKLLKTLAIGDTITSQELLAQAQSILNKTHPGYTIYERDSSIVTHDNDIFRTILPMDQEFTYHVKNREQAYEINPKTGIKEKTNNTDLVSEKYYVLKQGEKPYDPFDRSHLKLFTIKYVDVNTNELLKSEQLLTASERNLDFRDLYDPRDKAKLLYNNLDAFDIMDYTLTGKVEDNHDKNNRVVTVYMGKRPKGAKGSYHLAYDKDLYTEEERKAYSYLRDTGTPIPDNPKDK
# [7] = system: Streptococcus sp. 'group A'; experiment: Streptococcus pyogenes SK(-)GAS viability under kanamycin – luminescence, BacTiterGlo, confirmation, counter-screen for streptokinase expression inhibitor project, dose response (AID 1900); type: functional, organism-based
# Streptococcus = experiment: GAS UMAA2166 growth inhibition – luminescence, BacTiterGlo, counter-screen for streptokinase expression inhibitor project, dose response (AID 1915); type: functional, organism-based;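 further: potency for reduction of bacterial viability or growth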
# [8] = target: T2, Corticotropin-releasing factor receptor 2/Corticotropin-releasing factor-binding protein (Homo sapiens, UniProt P24387+Q13324); experiment: activators of CRF receptor 2 with binding protein – uHTS hits, confirmation (AID 602473); type: functional; conditions: read-out: EC50_Mean
# T2 sequence (Q13324 whole entry): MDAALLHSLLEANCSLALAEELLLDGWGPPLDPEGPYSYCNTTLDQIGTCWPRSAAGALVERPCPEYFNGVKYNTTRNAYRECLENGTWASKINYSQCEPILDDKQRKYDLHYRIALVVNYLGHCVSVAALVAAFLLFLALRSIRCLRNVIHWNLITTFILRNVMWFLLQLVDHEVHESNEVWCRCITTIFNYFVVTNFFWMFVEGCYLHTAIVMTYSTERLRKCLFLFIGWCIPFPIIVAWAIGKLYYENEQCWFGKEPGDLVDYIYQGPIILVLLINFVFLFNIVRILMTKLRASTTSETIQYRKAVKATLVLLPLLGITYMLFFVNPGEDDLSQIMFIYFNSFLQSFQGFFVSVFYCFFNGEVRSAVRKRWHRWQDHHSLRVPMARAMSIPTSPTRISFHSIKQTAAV
# T2 sequence (P24387 whole entry): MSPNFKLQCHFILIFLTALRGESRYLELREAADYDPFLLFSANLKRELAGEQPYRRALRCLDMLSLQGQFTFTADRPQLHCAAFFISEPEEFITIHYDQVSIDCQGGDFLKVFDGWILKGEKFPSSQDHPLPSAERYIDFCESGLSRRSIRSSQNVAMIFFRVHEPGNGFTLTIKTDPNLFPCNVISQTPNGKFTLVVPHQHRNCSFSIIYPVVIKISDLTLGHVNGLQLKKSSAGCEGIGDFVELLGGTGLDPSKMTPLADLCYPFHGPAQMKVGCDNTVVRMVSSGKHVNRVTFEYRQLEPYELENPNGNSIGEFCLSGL
# Cytochrome P450 1A2 = target: T3, Cytochrome P450 1A2 (Homo sapiens, UniProt P05177);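 further: PubChem cytochrome P450 panel assay, CYP1A2 panel member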
# T3 sequence (P05177 whole entry): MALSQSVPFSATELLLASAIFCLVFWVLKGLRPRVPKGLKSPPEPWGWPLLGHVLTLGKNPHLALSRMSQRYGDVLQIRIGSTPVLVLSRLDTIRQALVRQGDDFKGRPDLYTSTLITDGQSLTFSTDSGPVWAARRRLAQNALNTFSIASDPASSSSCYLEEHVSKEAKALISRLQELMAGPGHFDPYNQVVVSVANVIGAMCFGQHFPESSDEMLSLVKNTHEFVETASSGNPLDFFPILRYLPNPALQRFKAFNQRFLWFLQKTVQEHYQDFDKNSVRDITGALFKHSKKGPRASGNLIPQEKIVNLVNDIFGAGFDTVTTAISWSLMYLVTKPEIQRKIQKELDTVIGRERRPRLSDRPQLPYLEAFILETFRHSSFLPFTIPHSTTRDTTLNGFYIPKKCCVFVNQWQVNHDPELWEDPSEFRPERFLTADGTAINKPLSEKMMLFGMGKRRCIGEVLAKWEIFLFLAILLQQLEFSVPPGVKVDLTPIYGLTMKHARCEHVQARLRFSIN
# [9] = NIH3T3 cell viability loss – ATP luminescence, mouse fibroblasts, counter-screen, dose response (AID 2010); type: functional, cell-based;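 further: cells exposed to compound for about 90 hours before reading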
# [10] = Trypanosoma cruzi growth suppression in host cells – NIH3T3 host cells, beta-gal luminescence, confirmation (AID 2044); type: functional, cell-based;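 further: intracellular parasites grown in NIH/3T3 mouse fibroblasts as host cells; luminescent beta-galactosidase reporter signal from transgenic T. cruzi replicating inside host cells; inhibitors lower the luminescence signal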
# [11] = target: T4, Heat shock factor protein 1 (Mus musculus, UniProt P38532); experiment: decrease of HSF1-responsive luciferase luminescence – cell-based, NIH3T3, dose retest, confirmation (AID 2382); type: functional;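 further: NIH3T3 fibroblasts with HSF1-driven luciferase reporter stressed by proteasome inhibitor MG132; luminescence from HSF1-driven luciferase expression after 8 hours of MG132 stress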
# T4 sequence (P38532 whole entry): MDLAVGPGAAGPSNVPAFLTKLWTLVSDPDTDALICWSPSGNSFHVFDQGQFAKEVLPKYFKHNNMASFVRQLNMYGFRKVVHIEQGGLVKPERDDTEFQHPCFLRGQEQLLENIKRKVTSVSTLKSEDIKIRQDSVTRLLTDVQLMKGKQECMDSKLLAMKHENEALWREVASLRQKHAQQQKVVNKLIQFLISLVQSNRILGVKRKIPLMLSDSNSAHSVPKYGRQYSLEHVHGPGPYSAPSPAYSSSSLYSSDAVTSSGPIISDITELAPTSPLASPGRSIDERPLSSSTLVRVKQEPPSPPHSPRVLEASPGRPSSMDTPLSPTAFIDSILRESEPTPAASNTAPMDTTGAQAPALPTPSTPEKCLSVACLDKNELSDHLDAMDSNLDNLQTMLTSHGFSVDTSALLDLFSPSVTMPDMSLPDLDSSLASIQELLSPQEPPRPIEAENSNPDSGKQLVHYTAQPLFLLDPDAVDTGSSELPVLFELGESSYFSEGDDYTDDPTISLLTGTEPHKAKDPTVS
structure (smiles),measurement,setting,value
CC(C)[C@@H](C(=O)N1CCCC1)N1C(=O)N2CCc3c([nH]c4ccccc34)[C@@]2(C)C1=O,EC50,[1],> 120 µM (not active)
same,EC50,[2],> 120 µM (not active)
same,EC50,[3],> 120 µM (not active)
CC(=O)NC/C(C)=N\Nc1ccc([N+](=O)[O-])cc1,EC50,[4],33.9 µM (active)
Cc1nnsc1-c1onc(C)c1C(=O)Nc1cc(Cl)cc(Cl)c1,AC50,INS1,12.8 µM (active)
O=C1C2C3C=CC([C@@H]2C(=O)N1C1CCCCC1)[C@H]1C(=O)N(C2CCCCC2)C(=O)C31 (some centres undefined),AC50,Cytochrome P450 3A4,3.55 µM (inconclusive)
same,AC50,Cytochrome P450 2C9,6.31 µM (inconclusive)
same,AC50,Cytochrome P450 2C19,17.8 µM (inconclusive)
NNC(=O)c1cc(-c2cccs2)nc2ccccc12,EC50,[5],> 38 µM (not active)
same,EC50,[4],> 150 µM (inactive)
Oc1c(Cl)c(Cl)c(Cl)c(Cl)c1Cl [PENTACHLOROPHENOL],EC50,[5],0.657 µM (active)
same,EC50,[4],75.3 µM (inconclusive)
COc1ccc(CC(=O)N/N=C(\C)c2ccccn2)cc1,IC50,H9c2,> 79 µM (inactive)
same,EC50,[1],9.41 µM (active)
same,EC50,[2],10.9 µM (active)
same,EC50,[3],9.61 µM (active)
Cc1nc(NCCc2ccc(S(N)(=O)=O)cc2)c2c(C)c(C)sc2n1,AC50,INS1,5.52 µM (active)
CCCn1c(=O)c2[nH]c(-c3ccccc3)nc2n(CCC)c1=O,AC50,Cytochrome P450 3A4,2.51 µM (inconclusive)
same,AC50,Cytochrome P450 2C9,1.58 µM (inconclusive)
same,AC50,Cytochrome P450 2C19,10 µM (inconclusive)
CN(C)c1oc(-c2ccccc2Cl)nc1C#N,EC50,[1],33.3 µM (active)
same,EC50,[2],> 120 µM (not active)
same,EC50,[3],19.6 µM (active)
COc1ccc(-c2oc3ncn(CCN4CCOCC4)c(=N)c3c2-c2ccc(OC)cc2)cc1,EC50,[1],14.5 µM (active)
same,EC50,[2],8.99 µM (active)
same,EC50,[3],19.6 µM (active)
O=C(Cn1cccc1)NC1CCCCCC1,AC50,Cytochrome P450 3A4,17.8 µM (inconclusive)
same,AC50,Cytochrome P450 2C19,6.31 µM (inconclusive)
COc1cccc(CNC(=O)c2cc3c(c(-c4cccc(-c5ccncc5)c4)n2)[C@H](CCO)N([S@@+]([O-])C(C)(C)C)C3)c1,AC50,[6],4.29 µM (active)
COc1ccc(CNC(=O)c2coc(=O)c3ccccc23)c(OC)c1,EC50,[1],> 120 µM (not active)
same,EC50,[2],> 120 µM (not active)
same,EC50,[3],> 120 µM (not active)
CCOc1cc(CNc2ccc3c(c2)OCCO3)cc(Br)c1OC,EC50,[2],> 60 µM (inconclusive)
same,EC50,[3],10.7 µM (active)
CC(C)n1c(=O)c2c(=O)cc(O)oc2c2ccccc21,EC50,Streptokinase A,> 150 µM (not active)
same,AC50,Cytochrome P450 3A4,2.51 µM (inconclusive)
same,EC50,[7],27.8 µM (active)
same,AC50,Cytochrome P450 2C19,10 µM (inconclusive)
same,EC50,Streptococcus,> 150 µM (not active)
Brc1ccc(/C=C/C=N/Nc2nc3ccccc3s2)cc1,AC50,Cytochrome P450 2C9,7.08 µM (inconclusive)
same,EC50,[4],89.4 µM (inconclusive)
Cc1ccsc1C(=O)OCC(=O)Nc1sccc1C(N)=O,EC50,[5],5.44 µM (active)
same,EC50,[4],> 150 µM (inactive)
C[C@H](CO)N1C[C@H](C)[C@H](CN(C)C(=O)NC2CCCCC2)OCc2ccccc2-c2c(n(C)c3ccccc23)C1=O,AC50,[6],5.57 µM (active)
CCS(=O)(=O)N1CCCCN2[C@H](CO)[C@H](c3ccc(-c4cccc(C#N)c4)cc3)[C@H]2C1,AC50,[6],7.45 µM (active)
CCOC(=O)N1CCN(C(=O)c2cnc3ccc(S(=O)(=O)N(C)c4cccc(C)c4)cc3c2O)CC1,EC50,[8],3.84 µM (active)
CC(=O)Nc1cccc(NC(=O)Nc2cccc(F)c2)c1,EC50,[5],3.22 µM (active)
same,EC50,[4],> 150 µM (inactive)
O=C(NCc1cccnc1)C(=O)Nc1nc(C23CC4CC(CC(C4)C2)C3)cs1,AC50,INS1,35.3 µM (active)
CN(C)c1ccc(C(c2ccc(N(C)C)cc2)c2ccc([N+](=O)[O-])cc2)cc1,AC50,Cytochrome P450 3A4,2 µM (inconclusive)
same,AC50,Cytochrome P450 1A2,3.16 µM (inconclusive)
Cc1noc(C)c1S(=O)(=O)N(C)C[C@H]1OCc2ccccc2-c2c(n(C)c3ccccc23)C(=O)N([C@@H](C)CO)C[C@H]1C,AC50,[6],4.65 µM (active)
N#Cc1c(N2CCCCC2)nc(N2CCCCC2)c2c1CCN(Cc1ccccc1)C2,EC50,[9],> 30 µM (not active)
same,AC50,INS1,12.7 µM (active)
same,EC50,[10],0.505 µM (active)
CCOC(=O)c1s/c(=N\C(=O)c2ccco2)n(C)c1C,EC50,[5],9.57 µM (active)
same,EC50,[4],> 150 µM (inactive)
C=CCSc1nnc(C)c(/C=C/Nc2ccc(Cl)cc2)n1,EC50,[8],4.77 µM (active)
Cc1ccc(NC(=O)c2cc(S(=O)(=O)NCCC3=CCCCC3)ccc2F)cc1,AC50,INS1,2.96 µM (active)
CC1(C)CC(=O)C(CCC(=O)c2ccccc2)C(C)(C)N1 (centres undefined),AC50,Cytochrome P450 3A4,12.6 µM (inconclusive)
same,EC50,[11],> 195 µM (not active)
same,AC50,Cytochrome P450 2C19,28.2 µM (inconclusive)
O=C(N/N=C/c1ccco1)/C(=C/c1cccc([N+](=O)[O-])c1)NC(=O)c1ccccc1,AC50,Cytochrome P450 3A4,1.12 µM (inconclusive)
same,AC50,Cytochrome P450 2C19,1 µM (inconclusive)
CCCCSc1nc(C)cc(C)c1S(=O)(=O)c1ccccc1C,AC50,Cytochrome P450 3A4,28.2 µM (inconclusive)
same,AC50,Cytochrome P450 2C9,10 µM (inconclusive)
Cc1ccc(CS(=O)(=O)CCC(=O)NCc2ccccn2)cc1,AC50,Cytochrome P450 3A4,31.6 µM (inconclusive)
COc1ccc(CNc2nc(-c3ccc(C(=O)N(C)C)cc3)nc3ccccc23)c(OC)c1,AC50,Cytochrome P450 3A4,3.98 µM (inconclusive)
same,AC50,Cytochrome P450 2C9,1 µM (inconclusive)
